Tested on: PDE 4
Assay: Inhibition of PDE 4 activity
Type: biochemical
Conditions: inhibitory concentration as -log IC50 (mol/l), method of Bauer and Schwabe adapted to microtiter plates

## CCOc1cc2c(cc1OC)C([C@H]1CC[C@H](C(=O)OC)CC1)=N[C@H]1CCCC[C@@H]21 (relative stereo) [Compound 1]
  -log IC50: 7.47

Source: patent publication US6214839A, “Substituted 6-alkylphenanthridines” (Byk Gulden Lomberg Chemische Fabrik GmbH, priority 1997, dated 2001)
